According to the supplement of paper PMC7214452:

How the values were obtained:
Assay in all cases: normalized area under the dose-response curve (viability relative to DMSO control) (fraction); higher = less sensitive (more viable cells)
Settings in all cases: exposure time not given
[1] = tested on: JVM2 (cancer type: Mantle)
Procedure: (§1)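 25 myeloma and 15 non-Hodgkin lymphoma cell lines were exposed to each of 76 drugs as 7-point log dilutions (0.01 nM–10 µM) in duplicate. Viability was read with CellTiter-Glo and normalised to DMSO (0.1%) and staurosporine (10 µM) plate controls. Normalised AUC was calculated by the trapezoidal method relative to the negative control.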

[2] = tested on: AMO1 (cancer type: MM)
Procedure: as §1

[3] = tested on: EJM (cancer type: MM)
Procedure: as §1

[4] = tested on: L363 (cancer type: MM)
Procedure: as §1

[5] = tested on: OPM2 (cancer type: MM)
Procedure: as §1

[6] = tested on: SU-DHL1 (cancer type: TCL)
Procedure: as §1

[7] = tested on: Mino (cancer type: Mantle)
Procedure: as §1

[8] = tested on: OCI-LY1 (cancer type: DLBCL)
Procedure: as §1

[9] = tested on: LP1 (cancer type: MM)
Procedure: as §1

[10] = tested on: KMS34 (cancer type: MM)
Procedure: as §1

[11] = tested on: SU-DHL2 (cancer type: DLBCL)
Procedure: as §1

[12] = tested on: NCI-H929 (cancer type: MM)
Procedure: as §1

[13] = tested on: HuT 78 (cancer type: TCL)
Procedure: as §1

[14] = tested on: Granta-519 (cancer type: Mantle)
Procedure: as §1

[15] = tested on: MM1.R (cancer type: MM)
Procedure: as §1

[16] = tested on: SU-DHL6 (cancer type: DLBCL)
Procedure: as §1

[17] = tested on: JJN3 (cancer type: MM)
Procedure: as §1

[18] = tested on: KMS28BM (cancer type: MM)
Procedure: as §1

[19] = tested on: OCI-MY5/Vec (cancer type: MM)
Procedure: as §1

[20] = tested on: OCI-MY7 (cancer type: MM)
Procedure: as §1

[21] = tested on: SR-786 (cancer type: TCL)
Procedure: as §1

[22] = tested on: KMS12PE (cancer type: MM)
Procedure: as §1

[23] = tested on: U266 (cancer type: MM)
Procedure: as §1

[24] = tested on: KMS18 (cancer type: MM)
Procedure: as §1

[25] = tested on: OCI-LY19 (cancer type: DLBCL)
Procedure: as §1

[26] = tested on: XG2 (cancer type: MM)
Procedure: as §1

[27] = tested on: FR4 (cancer type: MM)
Procedure: as §1

[28] = tested on: OCI-MY5 (cancer type: MM)
Procedure: as §1

[29] = tested on: OCI-MY5/CRBN (cancer type: MM)
Procedure: as §1

[30] = tested on: JeKo-1 (cancer type: Mantle)
Procedure: as §1

[31] = tested on: Se-Ax (cancer type: TCL)
Procedure: as §1

[32] = tested on: KMS11 (cancer type: MM)
Procedure: as §1

[33] = tested on: RPMI 8226 (cancer type: MM)
Procedure: as §1

[34] = tested on: KMS26 (cancer type: MM)
Procedure: as §1

[35] = tested on: Karpas-299 (cancer type: TCL)
Procedure: as §1

[36] = tested on: KMS28PE (cancer type: MM)
Procedure: as §1

[37] = tested on: OCI-LY3 (cancer type: DLBCL)
Procedure: as §1

[38] = tested on: My-La (cancer type: TCL)
Procedure: as §1

[39] = tested on: SKMM2 (cancer type: MM)
Procedure: as §1

[40] = tested on: MM1.S (cancer type: MM)
Procedure: as §1

| SMILES | normalized area under the dose-response curve [1] | normalized area under the dose-response curve [2] | normalized area under the dose-response curve [3] | normalized area under the dose-response curve [4] | normalized area under the dose-response curve [5] | normalized area under the dose-response curve [6] | normalized area under the dose-response curve [7] | normalized area under the dose-response curve [8] | normalized area under the dose-response curve [9] | normalized area under the dose-response curve [10] | normalized area under the dose-response curve [11] | normalized area under the dose-response curve [12] | normalized area under the dose-response curve [13] | normalized area under the dose-response curve [14] | normalized area under the dose-response curve [15] | normalized area under the dose-response curve [16] | normalized area under the dose-response curve [17] | normalized area under the dose-response curve [18] | normalized area under the dose-response curve [19] | normalized area under the dose-response curve [20] | normalized area under the dose-response curve [21] | normalized area under the dose-response curve [22] | normalized area under the dose-response curve [23] | normalized area under the dose-response curve [24] | normalized area under the dose-response curve [25] | normalized area under the dose-response curve [26] | normalized area under the dose-response curve [27] | normalized area under the dose-response curve [28] | normalized area under the dose-response curve [29] | normalized area under the dose-response curve [30] | normalized area under the dose-response curve [31] | normalized area under the dose-response curve [32] | normalized area under the dose-response curve [33] | normalized area under the dose-response curve [34] | normalized area under the dose-response curve [35] | normalized area under the dose-response curve [36] | normalized area under the dose-response curve [37] | normalized area under the dose-response curve [38] | normalized area under the dose-response curve [39] | normalized area under the dose-response curve [40] |
| --- | --- | --- | --- | --- | --- | --- | --- | --- | --- | --- | --- | --- | --- | --- | --- | --- | --- | --- | --- | --- | --- | --- | --- | --- | --- | --- | --- | --- | --- | --- | --- | --- | --- | --- | --- | --- | --- | --- | --- | --- |
| N#CC[C@H](C1CCCC1)n1cc(-c2ncnc3[nH]ccc23)cn1 [Ruxolitinib] | 0.774 | 0.911 | 0.886 | 0.863 | 0.931 | 0.713 | 0.983 | 0.997 | 0.861 | 0.708 | 0.959 | 0.91 | 0.853 | 0.925 | 0.85 | 0.928 | 0.894 | 0.913 | 0.898 | 0.89 | 0.83 | 0.91 | 0.833 | 0.978 | 0.972 | 0.804 | 0.927 | 0.853 | 0.993 | 1.01 | 0.828 | 0.87 | 0.997 | 0.802 | 0.742 | 0.879 | 0.944 | 0.775 | 0.958 | 0.91 |
| O=C(/C=C\n1cnc(-c2cc(C(F)(F)F)cc(C(F)(F)F)c2)n1)NNc1cnccn1 [Selinexor] | 0.407 | 0.182 | 0.389 | 0.153 | 0.411 | 0.277 | 0.507 | 0.634 | 0.446 | 0.313 | 0.697 | 0.25 | 0.227 | 0.705 | 0.23 | 0.789 | 0.468 | 0.62 | 0.0963 | 0.13 | 0.306 | 0.47 | 0.415 | 0.446 | 0.38 | 0.256 | 0.703 | 0.151 | 0.105 | 0.43 | 0.483 | 0.126 | 0.424 | 0.42 | 0.553 | 0.41 | 0.643 | 0.469 | 0.598 | 0.18 |
| CNC(=O)c1cc(Oc2ccc(NC(=O)Nc3ccc(Cl)c(C(F)(F)F)c3)cc2)ccn1 [Sorafenib] | 0.747 | 0.578 | 0.663 | 0.578 | 0.539 | 0.576 | 0.872 | 0.913 | 0.495 | 0.239 | 0.901 | 0.57 | 0.704 | 0.877 | 0.61 | 0.937 | 0.435 | 0.611 | 0.499 | 0.59 | 0.824 | 0.6 | 0.45 | 0.471 | 0.873 | 0.543 | 0.594 | 0.459 | 0.589 | 0.922 | 0.655 | 0.535 | 0.546 | 0.634 | 0.812 | 0.752 | 0.955 | 0.836 | 0.56 | 0.57 |
| CCN(CC)CCNC(=O)c1c(C)[nH]c(/C=C2\C(=O)Nc3ccc(F)cc32)c1C [Sunitinib] | 0.605 | 0.519 | 0.587 | 0.648 | 0.56 | 0.541 | 0.761 | 0.818 | 0.651 | 0.459 | 0.8 | 0.56 | 0.536 | 0.863 | 0.61 | 0.875 | 0.638 | 0.739 | 0.82 | 0.72 | 0.652 | 0.7 | 0.698 | 0.665 | 0.794 | 0.46 | 0.681 | 0.576 | 0.816 | 0.729 | 0.69 | 0.641 | 0.538 | 0.714 | 0.722 | 0.519 | 0.892 | 0.772 | 0.734 | 0.58 |
| CO[C@H]1C[C@@H]2CC[C@@H](C)[C@@](O)(O2)C(=O)C(=O)N2CCCC[C@H]2C(=O)O[C@H]([C@H](C)C[C@@H]2CC[C@@H](OC(=O)C(C)(CO)CO)[C@H](OC)C2)CC(=O)[C@H](C)/C=C(\C)[C@@H](O)[C@@H](OC)C(=O)[C@H](C)C[C@H](C)/C=C/C=C/C=C/1C [Temsirolimus] | 0.559 | 0.695 | 0.823 | 0.7 | 0.749 | 0.71 | 0.691 | 0.685 | 0.746 | 0.559 | 0.576 | 0.74 | 0.722 | 0.695 | 0.68 | 0.72 | 0.774 | 0.859 | 0.884 | 0.79 | 0.745 | 0.69 | 0.752 | 0.754 | 0.697 | 0.725 | 0.789 | 0.775 | 0.772 | 0.744 | 0.663 | 0.752 | 0.763 | 0.978 | 0.585 | 0.696 | 0.648 | 0.764 | 0.912 | 0.63 |
| C[C@@H]1CCN(C(=O)CC#N)C[C@@H]1N(C)c1ncnc2[nH]ccc12 [Tofacitinib] | 0.931 | 0.901 | 0.941 | 0.904 | 0.938 | 0.97 | 0.957 | 0.994 | 0.858 | 0.89 | 0.93 | 0.92 | 0.879 | 0.94 | 0.92 | 0.969 | 0.966 | 0.962 | 1.02 | 0.95 | 0.856 | 1.01 | 0.874 | 1.01 | 0.996 | 0.838 | 1 | 0.944 | 0.97 | 1.05 | 0.929 | 0.933 | 1 | 0.957 | 0.891 | 0.936 | 0.952 | 0.877 | 0.978 | 0.85 |
| CC(=O)Nc1cccc(-n2c(=O)n(C3CC3)c(=O)c3c(Nc4ccc(I)cc4F)n(C)c(=O)c(C)c32)c1 [Trametinib] | 0.561 | 0.575 | 0.838 | 0.835 | 0.719 | 0.501 | 0.948 | 0.908 | 0.64 | 0.681 | 0.77 | 0.6 | 0.672 | 0.913 | 0.67 | 0.841 | 0.858 | 0.861 | 0.943 | 0.67 | 0.877 | 0.8 | 0.922 | 0.779 | 0.898 | 0.727 | 0.967 | 0.764 | 0.969 | 0.986 | 0.713 | 0.869 | 0.909 | 0.774 | 0.794 | 0.867 | 0.865 | 0.868 | 0.964 | 0.71 |
| COc1cc2/c(=N/c3ccc(Br)cc3F)nc[nH]c2cc1OCC1CCN(C)CC1 [Vandetanib] | 0.773 | 0.767 | 0.672 | 0.795 | 0.861 | 0.77 | 0.921 | 0.918 | 0.684 | 0.623 | 0.911 | 0.87 | 0.892 | 0.892 | 0.87 | 0.96 | 0.873 | 0.985 | 0.908 | 0.96 | 0.961 | 0.95 | 0.746 | 0.774 | 0.969 | 0.726 | 0.922 | 0.784 | 0.95 | 0.937 | 0.784 | 0.777 | 0.905 | 0.962 | 0.896 | 0.844 | 0.993 | 0.906 | 0.963 | 0.86 |
